A short description of data set [1]: Prodrug stability assay in bio-relevant media (FaSSIF with pancreatin; GI tract stability). Format: in vitro ADME. Particulars: parent prodrug area at 5 h divided by area at 0 h; 37° C.; 0.5 mg/mL pancreatin in FaSSIF. The protocol: Prodrug Stability Assay in Bio-Relevant Media
The following assay was employed to evaluate the stability of the prodrugs in simulated gastrointestinal tract conditions. Preparation of fasted state simulated intestinal fluid (FaSSIF) using Phares SIF Powder was carried out according to protocols from Phare Drug Delivery AG (Baselland, Switzerland). For sample preparation, 10 μL stock solutions (10 mM) of prodrug substance in DMSO was added to 990 μL of 0.5 mg/mL Pancreatin solution (Fisher CAS#8049-47-6) in FaSSIF. Two samples were prepared for each compound at initial. If the sample was clear solution at the beginning, ran one sample directly as initial by HPLC; if the sample was not clear at starting, diluted the sample by 100% ACN. Put the other sample under 37° C. and observed the sample at 5 h time-point. At 5 h time point, if the sample was clear solution then performed HPLC analysis directly; if it was not clear solution, diluted the sample by 100% ACN and assayed by HPLC. All the samples were vortexed for 3 min and observed before injection. For the diluted samples, the area will be multiplied by a factor when data analysis. The analysis was carried out with an Agilent 1100 series HPLC with autosampler. The column was usually a Poroshell 120 EC-C18, 4.6×50 mm, 2.7 μm. The flow rate was 1.8 mL/min, and the injection volume was 5 or 10 μL. UV detection was in the range 210-400 nm. The mobile phase consisted of solvent A (water plus 10 mM tetrabutylammonium bromide) and solvent B (acetonitrile) with a gradient of 90% solvent A at 0 min changing to 95% solvent B over 6 min, maintained for 1.5 min, then reverting to 90% solvent A over 1.6 min. The area of the parent in prodrug at 5 h time point was divided by the area of the parent in prodrug at 0 h time point, to generate the % claimed parent ratio, which are summarized in Table 5 for GI Tract stability.

The subject of the next data set is HIV-1 (H9/IIIB strain). Description: microbe, parasite or virus in culture. Format: cell-based. As to conditions: MT4-GFP cells infected with HIV-1 H9/IIIB, inhibition of reproductive ratio R0.
Where [2] appears, read: 10% normal human serum, read-out: Viking, IC50 (10% NHS).
Where [3] appears, read: 50% normal human serum, read-out: Viking, IC50 (50% NHS).

Like-named read-outs stand apart in the source and are kept apart here. A value given as a limit tells only on which side of the number the result lay.

Consider three molecules from US9822138B2, “Antiviral beta-amino acid ester phosphodiamide compounds” (Merck Sharp & Dohme Corp., priority 2015, dated 2017).

Broadly, the IC50 is the midpoint of a concentration-inhibition curve. As to `CCCCCOC(=O)C(C)(C)NP(=O)(CO[C@H](C)Cn1cnc2c(N)ncnc21)N[C@@H](C)CC(=O)OC(C)C` (single isomer, unassigned) [Example 26B], in data set [1], the “GI Tract stability” value is listed as 96.9%. The half-inhibitory concentration (IC50) in the data set with HIV-1 (H9/IIIB strain) (setting [2]) is 1.5 nM; with HIV-1 (H9/IIIB strain) (setting [3]) it was 6.8 nM.

For `CCCCCCOC(=O)C(C)(C)NP(=O)(CO[C@H](C)Cn1cnc2c(N)ncnc21)N[C@@H](CC(=O)OC(C)C)C(C)C` (single isomer, unassigned) [Example 28B], the “GI Tract stability” value in data set [1] is recorded as 83%. The IC50 with HIV-1 (H9/IIIB strain) (setting [2]) was 2.1 nM; with HIV-1 (H9/IIIB strain) (setting [3]) it was 5.7 nM.

Turning to `CC(C)OC(=O)C[C@H](N[P@](=O)(CO[C@H](C)Cn1cnc2c(N)ncnc21)NC(C)(C)C(=O)OC(C)C)C(C)C` [Example 25B], the “GI Tract stability” value in data set [1] worked out at 100%. Moreover, the IC50 with HIV-1 (H9/IIIB strain) (Human immunodeficiency virus 1, 10% normal human serum, read-out: Viking, IC50 (10% NHS)) was 590 nM; in the data set with HIV-1 (H9/IIIB strain) (Human immunodeficiency virus 1, 50% normal human serum, read-out: Viking, IC50 (50% NHS)), more than 2000 nM.
